Reference: patent publication US6492578B1, “Expression of herbicide tolerance genes in plant plastids” (Calgene LLC, priority 1998, dated 2002)
Where two headings read alike, the source gives them in different places.

Experiments:
[1] = test system: 5177 transformed tobacco lines and control lines; assay: Norflurazon resistance analysis (watering with Norflurazon solution); format: in vivo; conditions: 3 μM Norflurazon solution
Protocol: An experiment was set up to determine the efficacy of the Crt I trait with respect to resistance to the herbicide Norflurazon. Three 5177 transformed lines, 74-1B-P, 74-2-A, and 74-7-C and three control lines were planted. Plants were grown for seven weeks and then watered with a 3 μM Norflurazon solution. Plants negative for the presence of the crtI plastid-borne gene were bleached by Norflurazon treatment, positive plants stayed green and continued to grow.

Nb2 cell line = assay: Nb2 cell proliferation bioactivity assay (MTS); format: cell-based; conditions: pH adjusted and centrifuged extract of pMON38794 tobacco, 48 hrs, MTS (FIG. 5)
Protocol: Bioactivity of the pH adjusted and centrifuged extract was tested using cells from an Nb2 cell line. These cells proliferate in the presence of growth hormone and other […] type compounds. The assay involves putting various concentrations of growth hormone-containing extract into a 96 well plate. Then a constant amount of cells are added to each well. The plate is incubated for 48 hrs and then a reagent called MTS is added. Metabolizing cells take up the MTS and convert it to a blue colored substance. The more cells there are the more blue color in the well. The blue color is measured using a spectrophotometer. The number of cells should be proportional to the concentration of growth hormone in the media. At some high concentration one expects that the cells will become saturated with growth hormone and that the dose response will level off. At very low hGH concentrations essentially no enhanced growth is seen.

[2] = test system: homoplasmic tobacco line 38773-6; assay: In vitro glyphosate tolerance: shoot regeneration from leaf explants on TSO medium with glyphosate; format: cell-based, Nicotiana tabacum cv. Havana
Protocol: (§1) A transplastomic tobacco line homoplasmic for the construct pMON38773 was tested in vitro to determine the highest level of glyphosate tolerance. Explant tissue was prepared from leaf pieces of nontransgenic wild type tobacco control, Havanna, plants and the homoplasmic tobacco line 38773-6 and cultured for regeneration of shoots on TSO medium (described above) supplemented with glyphosate levels of 50 μM, 75 μM, 100 μM, 150 μM and 200 μM. The number of explants producing shoots was determined at 3 weeks and 6 weeks after explant preparation and culturing on glyphosate containing medium.

[3] = test system: nontransgenic wild type tobacco control, Havanna; assay: as above; format: cell-based, Nicotiana tabacum cv. Havana; conditions: for Number Regenerating 3 Weeks / Number Regenerating 6 Weeks: 10 explants
Protocol: as §1

[4] = test system: transplastomic tobacco lines containing EPSPS genes; assay: In vitro glyphosate selection of shoots from plastid transformation with EPSPS constructs; format: cell-based
Protocol: as §1
Additional transplastomic lines were tested in vitro for glyphosate tolerance as bed above.
The numbers in parentheses are the number of shoots resistant to selection at 1 mM glyphosate.

[5] = test system: Homoplasmic tobacco plants of the line 38773-6; assay: Whole plant glyphosate spray test (track sprayer); format: in vivo
Protocol: (§2) Homoplasmic tobacco plants of the line 38773-6 are sprayed with glyphosate using a track sprayer at concentrations corresponding to 0 oz/acre, 16 oz/acre, 32 oz/acre and 64 oz/acre to test for whole plant tolerance. Plant height was measured before and after s praying with glyphosate. The vegetative injury data was collected two weeks after spraying, while the reproductive injury data was collected at plant maturity.
(§3) Tolerance is characterized by the continued growth and greening of tissues sprayed with glyphosate. However, as the concentration of glyphosate applied increased, there was a corresponding increase in the level of vegetative injury.

[6] = test system: Wild type tobacco (nontransformed control plants); assay: Whole plant glyphosate spray test (track sprayer); format: in vivo
Protocol: as §2, §3

[7] = test system: transplastomic (and nuclear pMON10154) tobacco lines expressing EPSPS; assay: Glyphosate spray tolerance of other lines expressing EPSPS; format: in vivo
Protocol: as §2
(§4) In addition, other transplastomic lines were analyzed for tolerance to spraying with various levels of glyphosate as described above. Specific activity is measured as the amount of exogenously added Phosphoenol pyruvate (PEP) converted to […] per unit protein in the plant extract. Addition of glyphosate tests sensitivity of the EPSPS enzyme to glyphosate.

EPSPS enzyme [8] = target: T1, EPSPS enzyme (Agrobacterium sp., UniProt Q9R4E4); format: biochemical
T1 construct: from tissue; host or cells: extracts of wild-type and transplastomic tobacco plants
Protocol: (§5) Methods for the analysis of EPSPS enzyme activity are described in Padgette et al. (J. Biol. Chem. (1988)263:1798-1802 and Arch. Biochem. Biophys. (1987)258:564-573) and Wibbenmeyer et al. (Biochem. Biophys. Res. Commun. (1988)153:760-766).
as §4

EPSPS enzyme [9] = format: biochemical
Protocol: as §5, §4

[10] = line 38773-6, glyphosate 50 μM, 8 explants
[11] = line 38773-6, glyphosate 75 μM, 18 explants
[12] = line 38773-6, glyphosate 100 μM, 17 explants
[13] = line 38773-6, glyphosate 150 μM, 18 explants
[14] = line 38773-6, glyphosate 200 μM, 16 explants
[15] = line pMON10154 (nuclear), glyphosate spray
[16] = line pMON30123, glyphosate spray
[17] = line pMON30130, glyphosate spray
[18] = line pMON38773, glyphosate spray
[19] = line pMON38798, glyphosate spray
[20] = line pMON45201, glyphosate spray

T1 sequence (Q9R4E4 whole entry): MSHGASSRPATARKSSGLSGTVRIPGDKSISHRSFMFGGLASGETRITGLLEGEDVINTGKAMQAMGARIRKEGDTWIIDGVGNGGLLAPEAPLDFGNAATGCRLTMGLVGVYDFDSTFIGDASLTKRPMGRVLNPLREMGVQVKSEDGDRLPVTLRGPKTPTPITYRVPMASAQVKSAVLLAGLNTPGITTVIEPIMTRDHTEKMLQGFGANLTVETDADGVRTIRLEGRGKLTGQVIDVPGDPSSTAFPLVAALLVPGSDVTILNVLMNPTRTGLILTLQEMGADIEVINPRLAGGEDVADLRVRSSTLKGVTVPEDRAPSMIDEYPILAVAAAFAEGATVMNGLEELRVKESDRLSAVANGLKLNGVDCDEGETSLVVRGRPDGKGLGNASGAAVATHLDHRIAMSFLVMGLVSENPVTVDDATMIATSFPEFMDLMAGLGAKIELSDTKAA

Compound: CNc1cnn(-c2cccc(C(F)(F)F)c2)c(=O)c1Cl [Norflurazon]
- Norflurazon resistance ([1]; control plants): susceptible
- Result (Norflurazon resistance) ([1]; line 74-1B-P (homoplasmic 5177)): Resistant
- Result (Norflurazon resistance) ([1]; line 74-2-A (homoplasmic 5177)): Resistant
- Result (Norflurazon resistance) ([1]; line 74-7-C (homoplasmic 5177)): Resistant
- Result (Norflurazon resistance) ([1]; line 75-5D-A (Control)): Susceptible
- Result (Norflurazon resistance) ([1]; line 2560A Xanthi (Control)): Susceptible
- Result (Norflurazon resistance) ([1]; line Xanthi (Control), plants grown seven weeks): Susceptible
- Norflurazon resistance ([1]; three homoplasmic 5177 tobacco lines): resistant

Compound: hGH: Human Growth Hormone expressed from tobacco plastids (pMON38794), tested as pH adjusted and centrifuged leaf extract
- bioactivity: absorbance vs hGH concentration (Nb2 cell line): sigmoidal shape

Compound: O=C(O)CNCP(=O)(O)O [glyphosate, N-phosphonomethylglycine]
- % Explant Regeneration ([2]; line 38773-6, glyphosate 50 μM): 100%
- Number Regenerating 3 Weeks [2, 10]: 5
- Number Regenerating 6 Weeks [2, 10]: 8
- % Explant Regeneration ([2]; line 38773-6, glyphosate 75 μM): 100%
- Number Regenerating 3 Weeks [2, 11]: 14
- Number Regenerating 6 Weeks [2, 11]: 18
- % Explant Regeneration ([2]; line 38773-6, glyphosate 100 μM): 88%
- Number Regenerating 3 Weeks [2, 12]: 12
- Number Regenerating 6 Weeks [2, 12]: 15
- % Explant Regeneration ([2]; line 38773-6, glyphosate 150 μM): 89%
- Number Regenerating 3 Weeks [2, 13]: 10
- Number Regenerating 6 Weeks [2, 13]: 16
- % Explant Regeneration ([2]; line 38773-6, glyphosate 200 μM): 86%
- Number Regenerating 3 Weeks [2, 14]: 8
- Number Regenerating 6 Weeks [2, 14]: 15
- glyphosate level tolerated in vitro ([2]; tobacco expressing EPSPS in plastids (pMON38773), shoot regeneration): at least 200 μM
- % Explant Regeneration ([3]; glyphosate 50 μM): 0%
- Number Regenerating 3 Weeks ([3]; glyphosate 50 μM): 0
- Number Regenerating 6 Weeks ([3]; glyphosate 50 μM): 0
- % Explant Regeneration ([3]; glyphosate 75 μM): 0%
- Number Regenerating 3 Weeks ([3]; glyphosate 75 μM): 0
- Number Regenerating 6 Weeks ([3]; glyphosate 75 μM): 0
- % Explant Regeneration ([3]; glyphosate 100 μM): 0%
- Number Regenerating 3 Weeks ([3]; glyphosate 100 μM): 0
- Number Regenerating 6 Weeks ([3]; glyphosate 100 μM): 0
- % Explant Regeneration ([3]; glyphosate 150 μM): 0%
- Number Regenerating 3 Weeks ([3]; glyphosate 150 μM): 0
- Number Regenerating 6 Weeks ([3]; glyphosate 150 μM): 0
- % Explant Regeneration ([3]; glyphosate 200 μM): 0%
- Number Regenerating 3 Weeks ([3]; glyphosate 200 μM): 0
- Number Regenerating 6 Weeks ([3]; glyphosate 200 μM): 0
- glyphosate selection level tolerated by generated tobacco lines ([4]; in vitro selection, Table 5 lines): 1 mM
- No. of shoots Gly 50 uM(+) ([4]; pMON38766 (T7), 6 Spec/strep (+) shoots): 0
- No. of shoots Gly 50 uM(+) ([4]; pMON38766 (Wild), 1 Spec/strep (+) shoot): 0
- No. of shoots Gly 50 uM(+) ([4]; pMON38773 (Wild), 9 Spec/strep (+) shoots): 5
- No. of shoots positive at 1 mM glyphosate ([4]; pMON38773 (Wild), number in parentheses): 1
- No. of shoots Gly 50 uM(+) ([4]; pMON38793, 8 Spec/strep (+) shoots): 0
- No. of shoots Gly 50 uM(+) ([4]; pMON38796, 4 Spec/strep (+) shoots): 0
- No. of shoots Gly 50 uM(+) ([4]; pMON38797 (Wild), 2 Spec/strep (+) shoots): 0
- No. of shoots Gly 50 uM(+) ([4]; pMON38798, 6 Spec/strep (+) shoots): 6
- No. of shoots Gly 50 uM(+) ([4]; pMON45201, 9 Spec/strep (+) shoots): 3
- glyphosate concentration tolerated (vegetative tissue injury) ([5]; initial results, homoplasmic tobacco lines sprayed): 16 oz/acre
- glyphosate rate with a good level of tolerance ([5]; transplastomic lines, spray): 32 oz/acre
- Reproductive tolerance (oz/acre) ([6]; Wild-type, glyphosate spray): 0 oz/acre
- Vegetative tolerance (oz/acre) ([6]; Wild-type, glyphosate spray): 0 oz/acre
- susceptibility to sprayed glyphosate ([6]; nontransformed control plants, glyphosate concentrations as low as 16 oz/acre): highly susceptible
- Reproductive tolerance (oz/acre) [7, 15]: 64 oz/acre
- Vegetative tolerance (oz/acre) [7, 15]: 128 oz/acre
- Reproductive tolerance (oz/acre) [7, 16]: 0 oz/acre
- Vegetative tolerance (oz/acre) [7, 16]: 0 oz/acre
- Reproductive tolerance (oz/acre) [7, 17]: 0 oz/acre
- Vegetative tolerance (oz/acre) [7, 17]: 0 oz/acre
- Reproductive tolerance (oz/acre) [7, 18]: 16 oz/acre
- Vegetative tolerance (oz/acre) [7, 18]: 32 oz/acre
- Reproductive tolerance (oz/acre) [7, 19]: 16 oz/acre
- Vegetative tolerance (oz/acre) [7, 19]: 32 oz/acre
- Reproductive tolerance (oz/acre) [7, 20]: 32 oz/acre
- Vegetative tolerance (oz/acre) [7, 20]: 32 oz/acre
- glyphosate level tolerated ([7]; subsequent experiments with additional transformed transplastomic lines): 64 oz/acre
- SPECIFIC ACTIVITY (nmol/min/mg) +1 mM gly (EPSPS enzyme [8]; line pMON10154 (nuclear CP4 control) extract, No gly: 19.0): 18.4 nmol/min/mg
- SPECIFIC ACTIVITY (nmol/min/mg) +1 mM gly (EPSPS enzyme [8]; line pMON38773 extract, No gly: 16.7): 6.7 nmol/min/mg
- SPECIFIC ACTIVITY (nmol/min/mg) +1 mM gly (EPSPS enzyme [9]; Wild-type plant extract, No gly: 3.4): 0 nmol/min/mg
- SPECIFIC ACTIVITY (nmol/min/mg) +1 mM gly (EPSPS enzyme [9]; line pMON30123 extract, No gly: 4.0): 0 nmol/min/mg
- SPECIFIC ACTIVITY (nmol/min/mg) +1 mM gly (EPSPS enzyme [9]; line pMON30130 extract, No gly: 6.2): 0 nmol/min/mg
- SPECIFIC ACTIVITY (nmol/min/mg) +1 mM gly (EPSPS enzyme [9]; line pMON38798 extract, No gly: 17.2): 14.7 nmol/min/mg
- SPECIFIC ACTIVITY (nmol/min/mg) +1 mM gly (EPSPS enzyme [9]; line pMON45204 extract, No gly: 339.9): 371.8 nmol/min/mg
